{"source": "patent US20100099762A1", "about": "“COMBINATION THERAPY” (THE MENTAL HEALTH RESEARCH INSTITUTE OF VICTORIA, priority 2006, published 2010)", "key": {"[1]": {"tested_on": "bipolar disorder", "test": "Double blind randomised placebo controlled trial of NAC in addition to treatment as usual in bipolar disorder", "type": "in vivo, human", "excerpt": "Consented individuals were assigned using simple randomization (Beller et al., 2002) to treatment with NAC or placebo in addition to treatment as usual, in a double-blind fashion. The nature and dose of the primary therapy was monitored. The person generating the randomisation schedule was not involved in any aspect of participant interview. The investigators, clinicians and statisticians were blind to treatment allocation until the data analysis was completed. The study was registered with the Australian Clinical Trials Registry (Protocol #12605000362695). Participants were recruited through advertisements, their private psychiatrists and database screening. All participants provided written informed consent. The trial setting was in the public and private outpatient psychiatry clinics of the participating centers. The trial was approved by each participating research and ethics committee (Barwon Health, Southwest Area Mental Health Service, Bendigo Health, all in Victoria, Australia), and was conducted according to Good Clinical Practice guidelines.\nAll randomized participants received two NAC (500 mg) capsules twice daily (2 g daily), or matching placebo. We selected a daily dose that was at the upper dosing range for published clinical trials of oral NAC of 12 weeks to 12 months duration, and that reported evidence of tolerability and some efficacy (Adair et al., 2001; Van Schooten et al., 2002; Behr et al., 2002; Demedts et al., 2005).\nIndividuals needed to meet DSM-IV criteria for bipolar disorder (I or II) with at least 1 documented episode of illness (depressive, manic or mixed) in the previous 6 months, and had to have been on stable therapy for at least 1 month prior to randomisation. Participants were required to have the capacity to consent to the study and comply with study procedures, and utilise effective contraception where indicated.\nExclusion criteria included individuals with a known or suspected clinically relevant systemic medical disorder, including asthma, bronchospasm, or respiratory insufficiency, recent gastrointestinal ulcers, and individuals who were pregnant or lactating. Individuals taking greater than 500 mg of NAC/day, 200 μg of selenium/day or 500 IU of Vitamin E/day were excluded, as were those with a history of anaphylaxis with NAC or any component of the preparation. Inability to comply with either the requirements of informed consent or the treatment protocol was also an exclusion criterion.\nWithdrawal from the study occurred if participants ceased taking their trial medication for 7 consecutive days, stopped effective contraception or became pregnant. Dose changes to existing medications, or the addition or removal of an agent were accepted, and participants were allowed to continue with the study. Participants were withdrawn from the study if they revoked their consent or developed serious adverse events associated with the study drug, which could occur either at the request of the patient or the discretion of the investigator.\nParticipants were assessed at baseline using a structured clinical interview (MINI-plus) and underwent a physical examination. Clinical status was assessed using the MADRS, BDRS, YMRS, CGI-Improvement and Severity scales for bipolar disorder (CGI-I-BP, CGI-S-BP), GAF, SOFAS, SLICE/LIFE, LIFE RIFT, and Q-LES-Q.\nThese scales were repeated 2 weekly for the first 4 weeks and 4-weekly thereafter for a total of 24 weeks, or on the day of study termination if the patient withdrew prior to the final scheduled visit. A follow-up visit was conducted 4 weeks (±2 weeks) after the trial completion, either at trial endpoint (week 24), or premature discontinuation, to determine any change in clinical status on treatment discontinuation.\nTime to any intervention for mood symptoms was a further outcome measure. […]"}, "[2]": {"tested_on": "plasma glutathione", "test": "Parallel study of plasma glutathione at the trial dose of NAC", "type": "in vivo", "conditions": "NAC at this dose (2 g daily)"}, "[3]": {"conditions": "in vivo; cited from earlier work"}, "[4]": {"conditions": "NAC 2 g daily plus treatment as usual, week 24"}, "[5]": {"conditions": "post-treatment discontinuation (washout, week 28)"}, "[6]": {"conditions": "week 24, MMRM, between treatment group LS mean difference"}}}
{"molecule": "CC(=O)N[C@@H](CS)C(=O)O", "note": "[NAC, N-acetyl cysteine]", "values": [{"measurement": "BDRS: End point to Week 24 (Mean ± SD), NAC", "setting": "[1]; [4]", "value": "6.7 (6.4)"}, {"measurement": "CGI-I-BP: End point to Week 24 (Mean ± SD), NAC", "setting": "[1]; [4]", "value": "3.1 (1.6)"}, {"measurement": "CGI-I-D: End point to Week 24 (Mean ± SD), NAC", "setting": "[1]; [4]", "value": "3.2 (1.6)"}, {"measurement": "CGI-I-M: End point to Week 24 (Mean ± SD), NAC", "setting": "[1]; [4]", "value": "3.7 (1.1)"}, {"measurement": "CGI-S-BP: End point to Week 24 (Mean ± SD), NAC", "setting": "[1]; [4]", "value": "2.5 (1.2)"}, {"measurement": "CGI-S-D: End point to Week 24 (Mean ± SD), NAC", "setting": "[1]; [4]", "value": "2.3 (1.1)"}, {"measurement": "CGI-S-M: End point to Week 24 (Mean ± SD), NAC", "setting": "[1]; [4]", "value": "1.9 (1.2)"}, {"measurement": "GAF: End point to Week 24 (Mean ± SD), NAC", "setting": "[1]; [4]", "value": "71.3 (13.9)"}, {"measurement": "LIFE-RIFE: End point to Week 24 (Mean ± SD), NAC", "setting": "[1]; [4]", "value": "8.9 (3.3)"}, {"measurement": "MADRS: End point to Week 24 (Mean ± SD), NAC", "setting": "[1]; [4]", "value": "6.6 (7.4)"}, {"measurement": "Q-LES-Q: End point to Week 24 (Mean ± SD), NAC", "setting": "[1]; [4]", "value": "59.2 (12.7)"}, {"measurement": "SLICE-LIFE: End point to Week 24 (Mean ± SD), NAC", "setting": "[1]; [4]", "value": "14.9 (5.2)"}, {"measurement": "SOFAS: End point to Week 24 (Mean ± SD), NAC", "setting": "[1]; [4]", "value": "73.7 (13.4)"}, {"measurement": "YMRS: End point to Week 24 (Mean ± SD), NAC", "setting": "[1]; [4]", "value": "2.1 (3.3)"}, {"measurement": "Adverse event: headaches", "setting": "[1]; NAC group, placebo 8%", "value": 18, "unit": "%"}, {"measurement": "Adverse event: heartburn", "setting": "[1]; NAC group, placebo 8%", "value": 16, "unit": "%"}, {"measurement": "Adverse event: increased pain in joints", "setting": "[1]; NAC group, placebo 8%", "value": 16, "unit": "%"}, {"measurement": "Adverse event: changed energy", "setting": "[1]; NAC group, placebo 27%", "value": 21, "unit": "%"}, {"measurement": "Time to a mood episode (Kaplan Meier)", "setting": "[1]; NAC versus placebo, log-rank test", "value": "did not reveal any significant differences"}, {"measurement": "Effect sizes (Cohen's d) on all rating scales", "setting": "[1]; after 24 weeks of NAC treatment", "value": "moderate to large effects"}, {"measurement": "Treatment benefit at the post discontinuation visit", "setting": "[1]; any of the scales, week 28", "value": "not evident"}, {"measurement": "Adverse events, NAC group compared to placebo group", "setting": "[1]; checklist of 44 somatic items", "value": "No reported event was significantly more common"}, {"measurement": "Serious adverse events (SAE) in the group", "setting": "[1]; of the 7 reported, 4 in placebo group", "value": 3}, {"measurement": "BDRS: Post-treatment to Week 28 (Mean ± SD), NAC", "setting": "[1]; [5]", "value": "12.1 (10.8)"}, {"measurement": "CGI-I-BP: Post-treatment to Week 28 (Mean ± SD), NAC", "setting": "[1]; [5]", "value": "3.5 (1.5)"}, {"measurement": "CGI-I-D: Post-treatment to Week 28 (Mean ± SD), NAC", "setting": "[1]; [5]", "value": "3.7 (1.7)"}, {"measurement": "CGI-I-M: Post-treatment to Week 28 (Mean ± SD), NAC", "setting": "[1]; [5]", "value": "3.7 (1.0)"}, {"measurement": "CGI-S-BP: Post-treatment to Week 28 (Mean ± SD), NAC", "setting": "[1]; [5]", "value": "3.1 (1.5)"}, {"measurement": "CGI-S-D: Post-treatment to Week 28 (Mean ± SD), NAC", "setting": "[1]; [5]", "value": "3.1 (1.7)"}, {"measurement": "CGI-S-M: Post-treatment to Week 28 (Mean ± SD), NAC", "setting": "[1]; [5]", "value": "1.9 (0.9)"}, {"measurement": "GAF: Post-treatment to Week 28 (Mean ± SD), NAC", "setting": "[1]; [5]", "value": "66.6 (14.7)"}, {"measurement": "LIFE-RIFE: Post-treatment to Week 28 (Mean ± SD), NAC", "setting": "[1]; [5]", "value": "10.8 (4.2)"}, {"measurement": "MADRS: Post-treatment to Week 28 (Mean ± SD), NAC", "setting": "[1]; [5]", "value": "12.2 (11.6)"}, {"measurement": "Q-LES-Q: Post-treatment to Week 28 (Mean ± SD), NAC", "setting": "[1]; [5]", "value": "52.8 (11.4)"}, {"measurement": "SLICE-LIFE: Post-treatment to Week 28 (Mean ± SD), NAC", "setting": "[1]; [5]", "value": "17.2 (6.0)"}, {"measurement": "SOFAS: Post-treatment to Week 28 (Mean ± SD), NAC", "setting": "[1]; [5]", "value": "66.9 (16.2)"}, {"measurement": "YMRS: Post-treatment to Week 28 (Mean ± SD), NAC", "setting": "[1]; [5]", "value": "2.8 (3.4)"}, {"measurement": "Response, defined as a 50% reduction in total MADRS score, participants", "setting": "[1]; week 20 compared to baseline, placebo 21", "value": 46, "unit": "%"}, {"measurement": "CGI-I-BP: NAC-Placebo at Endpoint LS Mean", "setting": "[1]; [6]", "value": "−0.67"}, {"measurement": "CGI-I-D: NAC-Placebo at Endpoint LS Mean", "setting": "[1]; [6]", "value": "−0.62"}, {"measurement": "CGI-I-M: NAC-Placebo at Endpoint LS Mean", "setting": "[1]; [6]", "value": "−0.05"}, {"measurement": "CGI-S-D: NAC-Placebo at Endpoint LS Mean", "setting": "[1]; [6]", "value": "−0.67"}, {"measurement": "CGI-S-M: NAC-Placebo at Endpoint LS Mean", "setting": "[1]; [6]", "value": "−0.03"}, {"measurement": "Response, defined as a 50% reduction in total MADRS score, participants", "setting": "[1]; week 24 compared to baseline, placebo 18", "value": 51, "unit": "%"}, {"measurement": "Plasma glutathione", "setting": "[2]", "value": "significantly increased"}, {"measurement": "Human dosing without adverse effects", "setting": "[3]", "value": "up to 5 g/day"}]}
